Measurements reported in US20170281622A1, “DERIVATIVES OF MACROCYCLIC N-ARYL-2-AMINO-4-ARYL-PYRIMIDINE POLYETHERS AS INHIBITORS OF FTL3 AND JAK” (PIERRE FABRE MEDICAMENT, priority 2014, published 2017).
Positions count from the first letter of the chain named.

Experiments:
[1] = molecular target: T1, FLT3 (Homo sapiens, UniProt P36888); experiment: LanthaScreen TR-FRET binding test, FLT3; details: recombinant enzyme 15 nM, kinase tracer 236 3 nM, 25° C., 1 hour
T1 construct: purchased Life Technologies PV3182
T1 sequence (P36888 27-993): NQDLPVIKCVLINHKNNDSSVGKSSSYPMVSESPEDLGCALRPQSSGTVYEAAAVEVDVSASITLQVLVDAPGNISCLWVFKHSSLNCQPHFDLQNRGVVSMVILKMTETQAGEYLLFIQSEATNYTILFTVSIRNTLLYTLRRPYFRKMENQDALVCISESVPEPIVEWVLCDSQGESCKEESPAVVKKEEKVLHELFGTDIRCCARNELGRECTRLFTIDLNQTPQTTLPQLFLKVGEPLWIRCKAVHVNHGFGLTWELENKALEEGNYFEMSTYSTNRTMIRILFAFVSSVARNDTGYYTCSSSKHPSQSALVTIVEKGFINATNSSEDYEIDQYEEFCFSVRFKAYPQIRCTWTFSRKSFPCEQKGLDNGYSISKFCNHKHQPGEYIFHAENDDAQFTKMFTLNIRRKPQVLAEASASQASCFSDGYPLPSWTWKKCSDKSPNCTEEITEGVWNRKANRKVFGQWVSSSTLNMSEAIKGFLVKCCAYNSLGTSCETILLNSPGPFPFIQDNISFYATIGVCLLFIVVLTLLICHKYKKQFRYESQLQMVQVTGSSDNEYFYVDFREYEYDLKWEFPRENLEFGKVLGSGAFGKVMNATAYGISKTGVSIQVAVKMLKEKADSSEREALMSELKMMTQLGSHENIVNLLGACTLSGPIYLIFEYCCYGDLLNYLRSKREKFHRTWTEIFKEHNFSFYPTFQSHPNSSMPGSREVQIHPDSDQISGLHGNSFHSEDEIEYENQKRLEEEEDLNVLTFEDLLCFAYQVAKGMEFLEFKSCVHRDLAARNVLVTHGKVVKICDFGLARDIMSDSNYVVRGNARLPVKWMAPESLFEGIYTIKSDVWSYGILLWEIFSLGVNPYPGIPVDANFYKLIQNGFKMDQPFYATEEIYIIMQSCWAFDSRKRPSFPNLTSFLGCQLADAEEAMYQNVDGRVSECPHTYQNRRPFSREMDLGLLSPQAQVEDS
Procedure: (§1) FLT3 (#PV3182), JAK2 (#FV4210) and JAK3 (#PV3855) recombinant enzymes were purchased from Life Technologies, FLT3-ITD (#0778-0000-1) and FLT3^D835Y (#14-610) proteins were purchased from ProQinase and Merck Millipore, respectively. All the tests were carried out in 384-well plates. The principle of these binding tests is based on the LanthaScreen® TR-FRET methodology from Life Technologies.
(§2) FLT3 tests. The reaction mixture (15 μL total volume) contains the following compounds: 15 nM FLT3, FLT3-ITD or FLT3^D835Y, 3 nM kinase tracer 236 (Life Technologies, #PV5592) and 6 nM LanthaScreen® anti-GST antibody coupled to a europium chelate (Life Technologies, #PV5594) for FLT3-ITD and FLT3^D835Y or 6 nM LanthaScreen® anti-His antibody coupled to a europium chelate (Life Technologies, #PV5596) for FLT3.
(§3) The compounds are evaluated at 8 different concentrations prepared by making dilutions from a starting 10 mM stock solution in dimethylsulfoxide (DMSO) (Sigma, #D8418). The final DMSO concentration in the test is 1%. The reaction is carried out at 25° C. for 1 hour and detected on the EnVision® reader (Perkin Elmer) according to the recommendations of the supplier, Life Technologies.
(§4) The results are presented (Table 1) as the concentration values of the compound at which 50% of the kinase activity is inhibited, IC50 (μM), generated using the PRISM software (GraphPad).

[2] = molecular target: T2, FLT3-ITD (Homo sapiens, UniProt P36888); experiment: LanthaScreen TR-FRET binding test, FLT3-ITD; details: 15 nM protein, kinase tracer 236 3 nM, 25° C., 1 hour
T2 construct: fused on or other part: GST tag, inferred from detection with the anti-GST europium antibody
T2 sequence (P36888 1-993): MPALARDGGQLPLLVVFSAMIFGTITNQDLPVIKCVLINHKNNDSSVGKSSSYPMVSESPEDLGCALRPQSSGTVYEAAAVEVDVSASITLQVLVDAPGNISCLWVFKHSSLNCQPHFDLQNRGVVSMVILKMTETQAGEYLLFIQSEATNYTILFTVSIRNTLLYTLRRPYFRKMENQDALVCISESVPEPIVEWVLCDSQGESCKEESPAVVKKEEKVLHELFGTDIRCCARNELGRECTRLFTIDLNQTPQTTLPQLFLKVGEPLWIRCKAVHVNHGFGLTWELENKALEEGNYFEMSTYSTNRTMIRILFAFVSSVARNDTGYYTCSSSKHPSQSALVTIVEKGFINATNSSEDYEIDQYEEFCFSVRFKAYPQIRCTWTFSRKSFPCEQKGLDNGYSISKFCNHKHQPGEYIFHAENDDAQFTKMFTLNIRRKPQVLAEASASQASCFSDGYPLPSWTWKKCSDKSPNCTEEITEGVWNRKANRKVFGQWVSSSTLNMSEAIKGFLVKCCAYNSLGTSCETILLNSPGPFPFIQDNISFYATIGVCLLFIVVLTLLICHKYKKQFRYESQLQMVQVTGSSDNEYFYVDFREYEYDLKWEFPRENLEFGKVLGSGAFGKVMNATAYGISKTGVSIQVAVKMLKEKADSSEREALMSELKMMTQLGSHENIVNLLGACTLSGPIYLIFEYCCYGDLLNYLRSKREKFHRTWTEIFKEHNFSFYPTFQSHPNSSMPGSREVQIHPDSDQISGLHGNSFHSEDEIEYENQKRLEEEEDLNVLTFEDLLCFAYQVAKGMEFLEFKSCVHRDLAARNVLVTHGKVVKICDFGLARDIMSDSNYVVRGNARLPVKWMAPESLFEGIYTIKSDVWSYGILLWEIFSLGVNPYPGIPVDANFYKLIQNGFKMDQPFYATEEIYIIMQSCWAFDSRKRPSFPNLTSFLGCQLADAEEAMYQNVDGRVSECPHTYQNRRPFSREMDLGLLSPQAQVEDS
Procedure: as §1, §2, §3, §4

[3] = molecular target: T3, FLT3^D835Y (Homo sapiens, UniProt P36888, D835Y); experiment: LanthaScreen TR-FRET binding test, FLT3 D835Y; details: 15 nM protein, kinase tracer 236 3 nM, 25° C., 1 hour
T3 construct: purchased Merck Millipore 14-610
T3 sequence (P36888 27-993 D835Y): T1 sequence (P36888 27-993) with D809Y
Procedure: as §1, §2, §3, §4

[4] = molecular target: T4, JAK2 (Homo sapiens, UniProt O60674); experiment: LanthaScreen TR-FRET binding test, JAK2; details: recombinant enzyme 15 nM, kinase tracer 236 150 nM, 25° C., 1 hour
T4 construct: purchased Life Technologies FV4210
Procedure: as §1
(§5) JAK tests. The reaction mixture (15 μL total volume) contains the following compounds: 15 nM JAK2 or JAK3, 150 nM kinase tracer 236 (Life Technologies, #PV5592) for JAK2 or 3 nM for JAK3 and 6 nM LanthaScreen® anti-GST antibody coupled to a europium chelate (Life Technologies, #PV5594) for both enzymes.
as §3, §4

[5] = molecular target: T5, JAK3 (Homo sapiens, UniProt P52333); experiment: LanthaScreen TR-FRET binding test, JAK3; details: recombinant enzyme 15 nM, kinase tracer 236 3 nM, 25° C., 1 hour
T5 construct: purchased Life Technologies PV3855
T5 sequence (P52333 1-1124): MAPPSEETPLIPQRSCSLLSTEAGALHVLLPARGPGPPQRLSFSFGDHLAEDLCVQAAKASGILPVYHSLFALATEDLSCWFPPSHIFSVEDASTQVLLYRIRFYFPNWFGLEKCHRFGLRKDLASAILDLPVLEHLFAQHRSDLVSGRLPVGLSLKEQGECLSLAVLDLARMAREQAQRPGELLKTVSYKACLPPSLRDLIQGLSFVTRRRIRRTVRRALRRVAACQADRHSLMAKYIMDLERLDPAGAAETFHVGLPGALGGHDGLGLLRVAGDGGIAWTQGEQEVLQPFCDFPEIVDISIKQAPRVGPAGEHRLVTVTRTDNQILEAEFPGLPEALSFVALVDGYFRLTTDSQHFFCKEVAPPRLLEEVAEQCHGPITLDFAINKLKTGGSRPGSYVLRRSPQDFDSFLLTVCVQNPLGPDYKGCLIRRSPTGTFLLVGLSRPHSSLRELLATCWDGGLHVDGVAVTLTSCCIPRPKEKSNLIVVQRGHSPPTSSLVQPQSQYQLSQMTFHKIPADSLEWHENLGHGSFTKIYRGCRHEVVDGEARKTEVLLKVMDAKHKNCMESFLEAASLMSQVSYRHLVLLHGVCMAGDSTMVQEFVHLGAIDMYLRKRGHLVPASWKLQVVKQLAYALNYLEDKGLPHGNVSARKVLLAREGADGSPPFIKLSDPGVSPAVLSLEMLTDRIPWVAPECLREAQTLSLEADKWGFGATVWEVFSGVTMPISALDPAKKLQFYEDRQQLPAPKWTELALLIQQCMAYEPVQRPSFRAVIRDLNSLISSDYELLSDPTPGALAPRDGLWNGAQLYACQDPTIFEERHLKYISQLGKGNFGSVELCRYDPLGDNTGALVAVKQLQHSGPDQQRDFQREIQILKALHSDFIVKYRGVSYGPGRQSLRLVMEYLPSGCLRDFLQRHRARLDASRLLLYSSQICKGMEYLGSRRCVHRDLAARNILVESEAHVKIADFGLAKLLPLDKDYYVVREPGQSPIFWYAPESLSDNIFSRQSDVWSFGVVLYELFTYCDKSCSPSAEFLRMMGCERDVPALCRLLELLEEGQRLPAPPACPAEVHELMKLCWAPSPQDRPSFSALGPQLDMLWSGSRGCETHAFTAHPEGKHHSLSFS
Procedure: as §1, §5, §3, §4

[6] = system: MV4-11; experiment: Antiproliferative activity, MV4-11 cells (ATPLite); assay type: cell-based; details: Homo sapiens; MV4-11 cell line (acute myeloid leukemia, FLT3-ITD), 72 h, cell viability by ATPLite; read-out: EC50 MV411
Procedure: (§6) The characteristics of the cell lines used are as follows (Table 2).
(§7) MV4-11 and MOLM-13 cell lines are cultured in the culture medium specified in Table 2 above and according to the supplier's recommendations. The tests are carried out in 96-well plates. The cells are divided in two at D0. At D1, they are seeded and treated with the compounds at various concentrations and incubated for 72 h at 37° C. and 5% CO2. The dilution of the compounds from stock solutions in DMSO (Sigma, #D8418) was made semi-logarithmically for a final concentration in the culture medium of 0.1%. At day 4, cell viability is evaluated by assaying the ATP released by the living cells using the ATPLite® kit (Perkin Elmer, #6016947). The EC50 values (concentration of the compound necessary to obtain 50% of the maximum effect) are calculated using curve-fitting software.

[7] = system: MOLM-13; experiment: Antiproliferative activity, MOLM-13 cells (ATPLite); assay type: cell-based; details: Homo sapiens; MOLM-13 cell line (acute myeloid leukemia, FLT3-ITD), 72 h, cell viability by ATPLite; read-out: EC50 MOLM13
Procedure: as §6, §7

T4 sequence (O60674 whole entry): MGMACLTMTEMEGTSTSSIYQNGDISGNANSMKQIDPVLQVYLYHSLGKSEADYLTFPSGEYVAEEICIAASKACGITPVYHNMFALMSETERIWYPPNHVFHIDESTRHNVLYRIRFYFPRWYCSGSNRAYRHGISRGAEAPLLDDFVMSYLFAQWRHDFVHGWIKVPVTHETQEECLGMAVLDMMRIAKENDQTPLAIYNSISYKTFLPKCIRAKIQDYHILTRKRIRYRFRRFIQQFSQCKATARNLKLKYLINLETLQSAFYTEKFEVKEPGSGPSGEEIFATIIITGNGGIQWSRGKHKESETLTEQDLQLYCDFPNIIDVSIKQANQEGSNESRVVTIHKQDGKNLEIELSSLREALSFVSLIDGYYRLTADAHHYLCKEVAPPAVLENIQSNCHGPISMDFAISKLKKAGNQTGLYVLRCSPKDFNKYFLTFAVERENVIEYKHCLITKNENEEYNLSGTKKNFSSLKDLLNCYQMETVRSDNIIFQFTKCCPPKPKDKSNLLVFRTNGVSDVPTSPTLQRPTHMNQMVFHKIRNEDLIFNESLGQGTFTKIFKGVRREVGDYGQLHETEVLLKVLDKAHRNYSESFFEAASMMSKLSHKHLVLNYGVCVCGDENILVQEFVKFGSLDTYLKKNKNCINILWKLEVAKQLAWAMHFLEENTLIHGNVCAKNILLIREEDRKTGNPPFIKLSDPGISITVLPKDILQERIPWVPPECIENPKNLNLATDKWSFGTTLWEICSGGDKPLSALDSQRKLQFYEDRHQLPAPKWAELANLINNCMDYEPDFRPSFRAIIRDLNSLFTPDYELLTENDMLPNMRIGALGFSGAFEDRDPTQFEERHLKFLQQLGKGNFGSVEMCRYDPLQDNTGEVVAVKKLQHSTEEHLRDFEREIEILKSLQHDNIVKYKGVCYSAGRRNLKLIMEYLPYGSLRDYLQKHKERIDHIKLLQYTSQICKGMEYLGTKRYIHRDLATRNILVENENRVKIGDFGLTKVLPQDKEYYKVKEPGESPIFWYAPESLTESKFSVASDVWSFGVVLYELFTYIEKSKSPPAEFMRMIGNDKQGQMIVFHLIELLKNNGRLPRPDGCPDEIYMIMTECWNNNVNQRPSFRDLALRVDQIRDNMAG

IC50 [1] [nM]	IC50 [2] [nM]	IC50 [3] [nM]	IC50 [4] [nM]	IC50 [5] [nM]	EC50 [6] [nM]	EC50 [7] [nM]	Compound
110	120	41.2	5.2	50	246	145	CN1CCC(N2CCN(c3ccc4cc3OCCOCCOc3cccc(c3)-c3ccnc(n3)N4)CC2)CC1 [Compound 6]
25.5	14.5	35	7.7	50	57.3	18.9	CN1CCN(c2ccc3cc2OCCOCCOc2cccc(c2)-c2ccnc(n2)N3)CC1 [Compound 4]
4.7	1.6	6.2	60	100	1.8	3.9	CN1CCN(c2cc3cc(c2)OCCOCCOc2cccc(c2)-c2ccnc(n2)N3)CC1 [Compound 46]
